Like-named read-outs stand apart in the source and are kept apart here.
Assays:
[1] = system: wild type K-Ras colon cancer cells; parameters: method as in PMID 23555746; settings: 3D spheroids in laminin-rich extracellular matrix, concomitant reduction in EGFR levels; cited from earlier work
BT-474 cells [2] = experiment: Cytotoxicity concentration-response assay (CellTiter GLO, cellular ATP) in BT-474 cells cultured in 2D or 3D
MCF-10A cells [3] = experiment: Single concentration primary screen of ADC library, ATP content, MCF-10A cells 2D and 3D; format: cell-based, human; settings: MCF-10A normal cells, 5 µM, 48 h
Description: For single concentration point primary screens, the BT-474 cells were seeded at 3000 cells/well (in RPMI+10% FBS+PSG medium) and the MCF-10A cells at 1000 cells per well (in 50/50 DMEM/F12, 5% FHS, 0.5 µg/mL hydrocortisone, 5 µg/mL insulin, 5 ng/mL rhEGF, PSG) in 96-well Corning #3595 (for 2D) or Corning #7007 (for 3D) plates. Dilution plates were made by diluting the compounds 1∶1 with 50% medium/50% DMSO to yield a final concentration of 5 µM per well.

BT-474 cells [4] = experiment: Single concentration primary screen of ADC library, ATP content, BT-474 cells 2D and 3D; settings: 5 µM; for hit in primary screen (decreasing ATP content by 50% or more compared to vehicle treated cells): BT-474 tumor cells, 48 h, 2D and 3D; for selectivity for BT-474 cells over MCF-10A cells in primary screen: 3D culture conditions
HF+HE co-cultures = experiment: Concentration-response cell viability assay (CellTiterGLO) in HF+HE co-cultures; format: cell-based, human; settings: for EC50: Homo sapiens, 48 h, 15-point concentration response
Description: (§1) For co-cultures in 3D, trypsinized cells were counted and mixed together to be seeded into 96-well round-bottom ultralow attachment plates (Corning #7007). As indicated in the legends, either the total cell number was held at 3000 cells per well, or 3000 BT-474 cells were seeded together with 1500 HFs and/or HUVECs. As we observed with the monotypic spheroids, the co-cultures also spontaneously formed one spheroid per well during the 48-hour incubation period. By analysis of ATP levels, the co-culture spheroids were viable for 5 days without a medium change or addition of supplements. All the co-cultures were maintained in a 1∶1∶1 mixture of RPMI:DMEM:EGM-2 complete media. The 2D co-cultures were plated at the same ratio of cells in the same mixed medium, but in flat bottom 96-well tissue culture plates (Corning #3595). Forty-eight hours after plating, the 2D or 3D cells were used for cytotoxicity assays, screening, or immunostaining as described in subsequent Methods sections.
(§2) To quantitate cellular ATP as a measure of viability, 50 µL of CellTiter GLO reagent (Promega) was added to each well. […] In addition, spheroids were triturated six times to promote complete lysis.
(§3) For the co-culture screens, serial dilution primary screening was used. The cells were seeded in 96-well plates at 1500 HF+1500 HUVEC cells per well for the human fibroblast and human endothelial cell (HF+HE) co-cultures (in EGM-2 complete medium), or 750 HF+750 HUVEC+1500 BT-474 for the BT-474+HF+HE co-cultures (in 1∶1 RPMI+10% FBS+PSG: EGM-2 complete medium). Cells seeded in Corning #7007 round bottom, ultra-low attachment plates formed a single 3D spheroid per well while cells seeded in Corning #3595 flat bottom, tissue culture-treated plates attached as a 2D monolayer. […] Spheroid lysis was further aided by mixing 100 µl of volume using the STAR liquid handler, and then 75 µl was transferred to a Greiner Lumitrac 96-well plate for luminescence reading on a PE Envision plate reader. For the monolayer plates, 75 µl was transferred to the Greiner Lumitrac plates per well, and also read on the PE Envision.

[5] = system: HF cells cultured as 3D spheroids; experiment: Cell viability assay of HF spheroids (Figure S1A)
Description: All spheroids were cultured and treated as in Figure 3A–B. Figure represents 2 experiments performed in duplicate and table utilizes EC50 values from Figure 3 as a direct comparison. B, immunofluorescent and brightfield overlay images of BT-474 cells (3 k cells, brightfield), HEs (1 k cells, green) and HFs (1 k cells, red) cultured as spheroids for 48 h before addition of vehicle (0.1% DMSO, left panel) or 10 µM Lapatinib for 48 h (right panel).

MCF-10A cells [6] = experiment: Cytotoxicity concentration-response assay (CellTiter GLO, cellular ATP) in MCF-10A cells cultured in 2D or 3D; format: cell-based, human; settings: MCF-10A 3D spheroid, 48 h treatment, read-out: EC50 (concentration at which the compound reduces cell viability by 50%)
Description: To generate 3D miniature cultures for HTS, cells were seeded at a cell number observed to consistently form a single, uniformly round spheroid.
as §2

BT-474+HF+HE co-cultures = experiment: Concentration-response cell viability assay (CellTiterGLO) in BT-474+HF+HE co-cultures; format: cell-based, human; settings: for EC50: Homo sapiens, 48 h, 15-point concentration response
Description: as §1, §2, §3

[7] = Homo sapiens, BT-474, 48 h, read-out: EC50 (concentration at which the compound reduces cell viability by 50%), BT-474 3D spheroid, 48 h treatment

SMILES	EC50 (BT-474 cells [2]; [7]) [µM]	hit in primary screen (decreasing ATP content by 50% or more compared to vehicle treated cells) (MCF-10A cells [3])	hit in primary screen (decreasing ATP content by 50% or more compared to vehicle treated cells) (BT-474 cells [4])	EC50 (MCF-10A cells [6]; Homo sapiens, MCF-10A, 48 h) [µM]	selectivity for BT-474 cells over MCF-10A cells in primary screen (BT-474 cells [4])	other results
COc1cc2ncnc(Nc3cccc(Cl)c3)c2cc1OC [AG-1478, Tyrphostin AG1478]	–	–	–	–	–	sensitivity in 3D spheroids [1]: decreased sensitivity
Cc1nc(Nc2ncc(C(=O)Nc3c(C)cccc3Cl)s2)cc(N2CCN(CCO)CC2)n1 [dasatinib]	< 10	only under 2D culture conditions	hits under both 2D and 3D culture conditions	–	–	EC50 (BT-474 cells [2]; Homo sapiens, BT-474, read-out: calculated EC50 values in confirmatory dose response assays, BT-474, culture condition (2D/3D) not given): 6 to 8 µM; EC50 (BT-474 cells [2]; read-out: EC50 (concentration at which the compound reduces cell viability by 50%), BT-474 3D spheroid, 48 h treatment): 8.1 µM
COc1cc2ncnc(Nc3ccc(F)c(Cl)c3)c2cc1OCCCN1CCOCC1 [gefitinib]	–	only under 2D culture conditions	hits under both 2D and 3D culture conditions	–	–	–
CS(=O)(=O)CCNCc1ccc(-c2ccc3ncnc(Nc4ccc(OCc5cccc(F)c5)c(Cl)c4)c3c2)o1 [lapatinib]	–	only under 2D culture conditions	hits under both 2D and 3D culture conditions	> 5	–	fold less sensitive than BT-474 cancer cell spheroids (HF+HE co-cultures; HF+HE spheroids, 3D, Figure S1A): 100 fold; EC50 (HF+HE co-cultures; HF+HE 2D co-culture): 2.7 µM; EC50 (HF+HE co-cultures; HF+HE 3D co-culture): 30 µM; sensitivity of BT-474 spheroids compared to BT-474+HF+HE co-cultures (BT-474 cells [2]; 3D spheroids): more sensitive; fold less sensitive than BT-474 cancer cell spheroids [5]: 10 fold; EC50 (MCF-10A cells [6]): 9.8 µM; difference in sensitivity between 3D BT-474+HF+HE and 3D HF+HE co-cultures (BT-474+HF+HE co-cultures; 3D, ratio of EC50 values): about 30 fold; EC50 (BT-474+HF+HE co-cultures; BT-474+HF+HE 2D co-culture): 3.5 µM; EC50 (BT-474+HF+HE co-cultures; BT-474+HF+HE 3D co-culture): 0.9 µM
CC[C@]1(O)C[C@@H]2CN(CCc3c([nH]c4ccccc34)[C@@](C(=O)OC)(c3cc4c(cc3OC)N(C)[C@H]3[C@@](O)(C(=O)OC)[C@H](OC(C)=O)[C@]5(CC)C=CCN6CC[C@]43[C@@H]65)C2)C1 [vinblastine]	–	–	–	–	slight selectivity	–
CCC1=C[C@@H]2CN(C1)Cc1c([nH]c3ccccc13)[C@@](C(=O)OC)(c1cc3c(cc1OC)N(C)[C@H]1[C@@](O)(C(=O)OC)[C@H](OC(C)=O)[C@]4(CC)C=CCN5CC[C@]31[C@@H]54)C2 [vinorelbine]	5.2	we did not identify vinorelbine as a “hit”	–	> 100	slight selectivity	–

From paper PMC4172726, “3-Dimensional Culture Systems for Anti-Cancer Compound Profiling and High-Throughput Screening Reveal Increases in EGFR Inhibitor-Mediated Cytotoxicity Compared to Monolayer Culture Systems” (PLoS ONE, 2014)
